Results published in patent US20260184691A1, “INHIBITORS AND DEGRADERS OF PIP4K PROTEIN” (Larkspur Biosciences, Inc., priority 2022, published 2026).

biological target: T1, endogenous PIP4K2C C-terminally tagged with HiBiT peptide in MOLT-4 cells (Homo sapiens, UniProt Q8TBX8); test: HiBiT PIP4K2C degradation assay in MOLT-4 cells; type: cell-based; conditions: 24 hours, 10-point dose response, top concentration 10 micromolar, read-out: HiBIT-degradation MOLT4 PIP4k2C 24 hours DC50
T1 construct: to C-terminally tag endogenous PIP4K2C with HiBiT peptide; host or cells: MOLT-4 (CRISPR-Cas9 knock-in clone)
T1 sequence (Q8TBX8 1-421): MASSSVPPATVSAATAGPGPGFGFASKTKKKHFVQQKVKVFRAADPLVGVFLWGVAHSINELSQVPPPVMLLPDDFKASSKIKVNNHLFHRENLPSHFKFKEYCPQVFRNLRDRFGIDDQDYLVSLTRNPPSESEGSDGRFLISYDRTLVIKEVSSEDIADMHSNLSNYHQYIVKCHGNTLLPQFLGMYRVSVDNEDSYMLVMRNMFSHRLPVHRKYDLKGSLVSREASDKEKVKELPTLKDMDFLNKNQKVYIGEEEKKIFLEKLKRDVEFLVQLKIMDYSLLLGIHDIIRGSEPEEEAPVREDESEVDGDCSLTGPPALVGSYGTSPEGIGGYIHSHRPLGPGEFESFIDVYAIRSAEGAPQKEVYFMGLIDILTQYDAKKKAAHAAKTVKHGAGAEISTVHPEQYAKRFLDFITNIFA
Summary of the method: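 Cells bearing C-terminal HiBiT knock-in were exposed to a 10-point, 3-fold dilution series (top 10 micromolar, duplicate) for 24 h at 37C, 5% CO2. Remaining tagged protein read by lytic HiBiT luminescence; DC50 from Hill-equation fit.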

`O=C1CCC(Nc2ccc(C3CCN(CC(=O)N4CCC5(CC4)CCN(c4cncc(Nc6ncc(Cl)c(-c7cccc(C8CCCCC8)c7)n6)c4)C5=O)CC3)cc2)C(=O)N1` (stereo not drawn) [Compound 190, 3-((4-(1-(2-(2-(5-((5-chloro-4-(3-cyclohexylphenyl)pyrimidin-2-yl)amino)pyridin-3-yl)-1-oxo-2,8-diazaspiro[4.5]decan-8-yl)-2-oxoethyl)piperidin-4-yl)phenyl)amino)piperidine-2,6-dione] and `O=C1CCC(Nc2ccc(C3CCN(CC(=O)N4CCC5(CC4)CCN(c4cncc(Nc6ncc(Cl)c(-c7cccc(N8CCCC8)c7)n6)c4)C5=O)CC3)cc2)C(=O)N1` (stereo not drawn) [Compound 179, 3-((4-(1-(2-(2-(5-((5-chloro-4-(3-(pyrrolidin-1-yl)phenyl)pyrimidin-2-yl)amino)pyridin-3-yl)-1-oxo-2,8-diazaspiro[4.5]decan-8-yl)-2-oxoethyl)piperidin-4-yl)phenyl)amino)piperidine-2,6-dione] cannot be ordered by DC50: less than 500 nM for the first, less than 500 nM for the second.

`O=C1CCC(N2C(=O)c3cccc(OCCCCCCC(=O)N4CCC5(CC4)CCN(c4cncc(Nc6ncc(Cl)c(-c7cccc(-c8ccccc8)c7)n6)c4)C5=O)c3C2=O)C(=O)N1` (stereo not drawn) [Compound 80, 4-((7-(2-(5-((4-([1,1′-biphenyl]-3-yl)-5-chloropyrimidin-2-yl)amino)pyridin-3-yl)-1-oxo-2,8-diazaspiro[4.5]decan-8-yl)-7-oxoheptyl)oxy)-2-(2,6-dioxopiperidin-3-yl)isoindoline-1,3-dione] and `O=C1CCC(N2C(=O)c3ccc(OCCCCCC(=O)N4CCC5(CC4)CCN(c4cncc(Nc6ncc(Cl)c(-c7cccc(-c8ccccc8)c7)n6)c4)C5=O)cc3C2=O)C(=O)N1` (stereo not drawn) [Compound 75, 5-((6-(2-(5-((4-([1,1′-biphenyl]-3-yl)-5-chloropyrimidin-2-yl)amino)pyridin-3-yl)-1-oxo-2,8-diazaspiro[4.5]decan-8-yl)-6-oxohexyl)oxy)-2-(2,6-dioxopiperidin-3-yl)isoindoline-1,3-dione] cannot be ordered by DC50: less than 500 nM for the first, less than 500 nM for the second.

`O=C1CCC(N2Cc3cc(OC4CCN(CC(=O)N5CCC6(CC5)CCN(c5cncc(Nc7ncc(Cl)c(-c8cccc(C9CC9)c8)n7)c5)C6=O)CC4)ccc3C2=O)C(=O)N1` (stereo not drawn) [Compound 205, 3-[5-[[1-[2-[2-[5-[[5-chloro-4-(3-cyclopropylphenyl)pyrimidin-2-yl]amino]-3-pyridyl]-1-oxo-2,8-diazaspiro[4.5]decan-8-yl]-2-oxo-ethyl]-4-piperidyl]oxy]-1-oxo-isoindolin-2-yl]piperidine-2,6-dione] and `O=C1CCC(N2Cc3cc(OCCCCCCC(=O)N4CCC5(CC4)CCN(c4cncc(Nc6ncc(Cl)c(-c7cccc(-c8ccccc8)c7)n6)c4)C5=O)ccc3C2=O)C(=O)N1` (stereo not drawn) [Compound 64, 3-(5-((7-(2-(5-((4-([1,1′-biphenyl]-3-yl)-5-chloropyrimidin-2-yl)amino)pyridin-3-yl)-1-oxo-2,8-diazaspiro[4.5]decan-8-yl)-7-oxoheptyl)oxy)-1-oxoisoindolin-2-yl)piperidine-2,6-dione] cannot be ordered by DC50: less than 500 nM for the first, less than 500 nM for the second.

Compared with `O=C1CCC(Nc2ccc(N3CCC(CC(=O)N4CCC5(CC4)CCN(c4cncc(Nc6ncc(Cl)c(-c7cccc(C8CCCCC8)c7)n6)c4)C5=O)CC3)cc2)C(=O)N1` (stereo not drawn) [Compound 189, 3-((4-(4-(2-(2-(5-((5-chloro-4-(3-cyclohexylphenyl)pyrimidin-2-yl)amino)pyridin-3-yl)-1-oxo-2,8-diazaspiro[4.5]decan-8-yl)-2-oxoethyl)piperidin-1-yl)phenyl)amino)piperidine-2,6-dione], `O=C1CCC(Nc2ccc(N3CCC(CC(=O)N4CCC5(CC4)CCN(c4cncc(Nc6ncc(Cl)c(-c7cccc(N8CCCC8)c7)n6)c4)C5=O)CC3)cc2)C(=O)N1` (stereo not drawn) [Compound 184, 3-((4-(4-(2-(2-(5-((5-chloro-4-(3-(pyrrolidin-1-yl)phenyl)pyrimidin-2-yl)amino)pyridin-3-yl)-1-oxo-2,8-diazaspiro[4.5]decan-8-yl)-2-oxoethyl)piperidin-1-yl)phenyl)amino)piperidine-2,6-dione] is lower in DC50: 500 to 1000 nM for the first, less than 500 nM for the second.

`O=C1CCC(N2C(=O)c3cccc(OCCCN4CCN(CCCCCCC(=O)Nc5cncc(Nc6ncc(Cl)c(-c7cccc(-c8ccccc8)c7)n6)c5)CC4)c3C2=O)C(=O)N1` (stereo not drawn) [Compound 58, N-(5-((4-([1,1′-biphenyl]-3-yl)-5-chloropyrimidin-2-yl)amino)pyridin-3-yl)-7-(4-(3-((2-(2,6-dioxopiperidin-3-yl)-1,3-dioxoisoindolin-4-yl)oxy)propyl)piperazin-1-yl)heptanamide] and `O=C(COc1cccc2c1C(=O)N(C1CCC(=O)NC1=O)C2=O)NCCCCCCCC(=O)Nc1cncc(Nc2ncc(Cl)c(-c3cccc(-c4ccccc4)c3)n2)c1` (stereo not drawn) [Compound 86, N-(5-((4-([1,1′-biphenyl]-3-yl)-5-chloropyrimidin-2-yl)amino)pyridin-3-yl)-8-(2-((2-(2,6-dioxopiperidin-3-yl)-1,3-dioxoisoindolin-4-yl)oxy)acetamido)octanamide] cannot be ordered by DC50: less than 500 nM for the first, less than 500 nM for the second.

First: O=C1CCC(Nc2ccc(N3CCC(CN4CCC5(CC4)CCN(c4cncc(Nc6ncc(Cl)c(-c7ccc(Cl)cc7)n6)c4)C5=O)CC3)cc2)C(=O)N1 (stereo not drawn) [Compound 174, 3-((4-(4-((2-(5-((5-chloro-4-(4-chlorophenyl)pyrimidin-2-yl)amino)pyridin-3-yl)-1-oxo-2,8-diazaspiro[4.5]decan-8-yl)methyl)piperidin-1-yl)phenyl)amino)piperidine-2,6-dione]
Second: O=C1CCC(N2Cc3cc(OCCCCCCCC(=O)N4CCC5(CC4)CCN(c4cncc(Nc6ncc(Cl)c(-c7cccc(-c8ccccc8)c7)n6)c4)C5=O)ccc3C2=O)C(=O)N1 (stereo not drawn) [Compound 63, 3-(5-((8-(2-(5-((4-([1,1′-biphenyl]-3-yl)-5-chloropyrimidin-2-yl)amino)pyridin-3-yl)-1-oxo-2,8-diazaspiro[4.5]decan-8-yl)-8-oxooctyl)oxy)-1-oxoisoindolin-2-yl)piperidine-2,6-dione]
The DC50 of the first is higher: 1000 to 5000 nM for the first, less than 500 nM for the second.

`O=C(COc1ccc2c(c1)CN(C1CCC(=O)NC1=O)C2=O)NCCCCCCCCCC(=O)Nc1cncc(Nc2ncc(Cl)c(-c3cccc(-c4ccccc4)c3)n2)c1` (stereo not drawn) [Compound 60, N-(5-((4-([1,1′-biphenyl]-3-yl)-5-chloropyrimidin-2-yl)amino)pyridin-3-yl)-10-(2-((2-(2,6-dioxopiperidin-3-yl)-1-oxoisoindolin-5-yl)oxy)acetamido)decanamide] and `O=C1CCC(N2Cc3cc(OCCCCCCCCCC(=O)N4CCC5(CC4)CCN(c4cncc(Nc6ncc(Cl)c(-c7cccc(-c8ccccc8)c7)n6)c4)C5=O)ccc3C2=O)C(=O)N1` (stereo not drawn) [Compound 61, 3-(5-((10-(2-(5-((4-([1,1′-biphenyl]-3-yl)-5-chloropyrimidin-2-yl)amino)pyridin-3-yl)-1-oxo-2,8-diazaspiro[4.5]decan-8-yl)-10-oxodecyl)oxy)-1-oxoisoindolin-2-yl)piperidine-2,6-dione] cannot be ordered by DC50: less than 500 nM for the first, less than 500 nM for the second.

Work on `Cn1c(=O)n(C2CCC(=O)NC2=O)c2ccc(C3CCN(CC(=O)N4CCC(C(=O)Nc5cncc(Nc6ncc(Cl)c(-c7cccc(C8CC8)c7)n6)c5)CC4)CC3)cc21` (stereo not drawn) [Compound 210, N-(5-((5-chloro-4-(3-cyclopropylphenyl)pyrimidin-2-yl)amino)pyridin-3-yl)-1-(2-(4-(1-(2,6-dioxopiperidin-3-yl)-3-methyl-2-oxo-2,3-dihydro-1H-benzo[d]imidazol-5-yl)piperidin-1-yl)acetyl)piperidine-4-carboxamide] yielded a DC50 of less than 500 nM.
